# Reference: US9434727B2, “Substituted 4-phenylpiperidines, their preparation and use” (THE TRUSTEES OF COLUMBIA UNIVERSITY IN THE CITY OF NEW YORK, priority 2014, dated 2016)
# Assays:
# RBP4 = RBP4 (Homo sapiens (Human), UniProt P02753); assay: Scintillation proximity (SPA) RBP4 binding assay; settings: 10 nM 3H-Retinol, 50 nM biotinylated RBP4
# Protocol: Scintillation Proximity RBP4 Binding Assay
# Untagged human RBP4 purified from urine of tubular proteinuria patients was purchased from Fitzgerald Industries International. It was biotinylated using the EZ-Link Sulfo-NHS-LC-Biotinylation kit from Pierce following the manufacturer's recommendations. Binding experiments were performed in 96-well plates (OptiPlate, PerkinElmer) in a final assay volume of 100 μl per well in SPA buffer (IX PBS, pH 7.4, 1 mM EDTA, 0.1% BSA, 0.5% CHAPS). The reaction mix contained 10 nM ^3H-Retinol (48.7 Ci/mmol; PerkinElmer), 0.3 mg/well Streptavidin-PVT beads, 50 nM biotinylated RBP4 and a test compound. Nonspecific binding was determined in the presence of 20 μM of unlabeled retinol. The reaction mix was assembled in the dark under dim red light. The plates were sealed with clear tape (TopSeal-A: 96-well microplate, PerkinElmer), wrapped in the aluminum foil, and allowed to equilibrate 6 hours at room temperature followed by overnight incubation at +4° C. Radiocounts were measured using a TopCount NXT counter (Packard Instrument Company).
# RBP4-TTR interaction = RBP4-TTR interaction (Homo sapiens (Human), UniProt P02753); assay: TR-FRET (HTRF) assay for retinol-induced RBP4-TTR interaction; assay type: biochemical; settings: in the presence of 1 μM retinol; read-out: HTRF assay for antagonists of RBP4-TTR interaction: IC50
# Text: TR-FRET assay for retinol-induced RBP4-TTR interaction Binding of a desired RBP4 antagonist displaces retinol and induces hindrance for RBP4-TTR interaction resulting in the decreased FRET signal (FIG. 7). Bacterially expressed MBP-RBP4 and untagged TTR were used in this assay. […] Following cell lysis, recombinant RBP4 was purified from the soluble fraction using the ACTA FPLC system (GE Healthcare) equipped with the 5-ml the MBP Trap HP column. Human untagged TTR was purchased from Calbiochem. Untagged TTR was labeled directly with Eu^3+ Cryptate-NHS using the HTRF Cryptate Labeling kit from CisBio following the manufacturer's recommendations. HTRF assay was performed in white low volume 384 well plates (Greiner-Bio) in a final assay volume of 16 μl per well. The reaction buffer contained 10 mM Tris-HCl pH 7.5, 1 mM DTT, 0.05% NP-40, 0.05% Prionex, 6% glycerol, and 400 mM KF. […] Titration of test compounds in this assay was conducted in the presence of 1 μM retinol. All reactions were assembled in the dark under dim red light and incubated overnight at +4° C. wrapped in aluminum foil. TR-FRET signal was measured in the SpectraMax M5e Multimode Plate Reader (Molecular Device). […] The TR-FRET signal was expressed as the ratio of fluorescence intensity: Flu665/Flu620×10,000.
smiles,measurement,setting,value
"CC(C)CC(=O)N1Cc2[nH]nc(C(=O)N3CCC(c4ccc(F)c(F)c4C(F)(F)F)CC3)c2C1 [Compound 86, 1-(3-(4-(3,4-difluoro-2-(trifluoromethyl)phenyl)piperidine-1-carbonyl)pyrrolo[3,4-c]pyrazol-5(1H, 4H, 6H)-yl)-3-methylbutan-1-one]",IC50,RBP4,19.3 nM
same,IC50,RBP4-TTR interaction,27.8 nM
"COC(=O)N1CCc2c(C(=O)N3CCC(c4ccc(F)c(F)c4C(F)(F)F)CC3)n[nH]c2C1 [Compound 116, Methyl 3-(4-(3,4-difluoro-2-(trifluoromethyl)phenyl)piperidine-1-carbonyl)-1,4,5,7-tetrahydro-6H-pyrazolo[3,4-c]pyridine-6-carboxylate]",IC50,RBP4,11.4 nM
same,IC50,RBP4-TTR interaction,23.7 nM
"N#CN1CCc2[nH]nc(C(=O)N3CCC(c4ccc(F)c(F)c4C(F)(F)F)CC3)c2C1 [Compound 95, 3-(4-(3,4-difluoro-2-(trifluoromethyl)phenyl)piperidine-1-carbonyl)-6,7-dihydro-1H-pyrazolo[4,3-c]pyridine-5(4H)-carbonitrile]",IC50,RBP4,7.78 nM
same,IC50,RBP4-TTR interaction,27.8 nM
"CS(=O)(=O)N1CCc2[nH]nc(C(=O)N3CCC(c4cccc(F)c4C(F)(F)F)CC3)c2C1 [Compound 64, (4-(3-Fluoro-2-(trifluoromethyl)phenyl)piperidin-1-yl)(5-(methylsulfonyl)-4,5,6,7-tetrahydro-1H-pyrazolo[4,3-c]pyridin-3-yl)methanone]",IC50,RBP4,5.36 nM
same,IC50,RBP4-TTR interaction,20.6 nM
"COCCN1CCc2[nH]nc(C(=O)N3CCC(c4cc(F)cc(F)c4C(F)(F)F)CC3)c2C1 [Compound 127, (4-(3,5-Difluoro-2-(trifluoromethyl)phenyl)piperidin-1-yl)(5-(2-methoxyethyl)-4,5,6,7-tetrahydro-1H-pyrazolo[4,3-c]pyridin-3-yl)methanone]",IC50,RBP4,15.9 nM
same,IC50,RBP4-TTR interaction,17 nM
"CCC(=O)N1Cc2[nH]nc(C(=O)N3CCC(c4ccc(F)c(F)c4C(F)(F)F)CC3)c2C1 [Compound 84, 1-(3-(4-(3,4-difluoro-2-(trifluoromethyl)phenyl)piperidine-1-carbonyl)pyrrolo[3,4-c]pyrazol-5(1H,4H,6H)-yl)propan-1-one]",IC50,RBP4,16.3 nM
same,IC50,RBP4-TTR interaction,14.7 nM
"O=C(c1n[nH]c2c1CN(C(=O)N1CCNCC1)C2)N1CCC(c2ccc(F)c(F)c2C(F)(F)F)CC1 [Compound 169, (4-(3,4-Difluoro-2-(trifluoromethyl)phenyl)piperidin-1-yl)(5-(piperazine-1-carbonyl)-1,4,5,6-tetrahydropyrrolo[3,4-c]pyrazol-3-yl)methanone]",IC50,RBP4,33 nM
same,IC50,RBP4-TTR interaction,55.8 nM
"O=C(c1n[nH]c2c1CN(CCC(F)(F)F)C2)N1CCC(c2ccc(F)c(F)c2C(F)(F)F)CC1 [Compound 108, (4-(3,4-difluoro-2(trifluoromethyl)phenyl)piperidin-1-yl)(5-(3,3,3-trifluoropropyl)-1,4,5,6-tetrahydropyrrolo[3,4-c]pyrazol-3-yl)methanone]",IC50,RBP4,25.2 nM
same,IC50,RBP4-TTR interaction,49.5 nM
"CC(=O)N1CCc2c(C(=O)N3CCC(c4c(F)cccc4C(F)(F)F)CC3)n[nH]c2C1 [Compound 156, 1-(3-(4-(2-fluoro-6-(trifluoromethyl)phenyl)piperidine-1-carbonyl)-4,5-dihydro-1H-pyrazolo[3,4-c]pyridin-6 (7H)-yl) ethanone]",IC50,RBP4,19.4 nM
same,IC50,RBP4-TTR interaction,248 nM
"N#CN1Cc2[nH]nc(C(=O)N3CCC(c4ccc(F)c(F)c4C(F)(F)F)CC3)c2C1 [Compound 110, 3-(4-(3,4-difluoro-2-(trifluoromethyl)phenyl)piperidine-1-carbonyl)-4,6-dihydropyrrolo[3,4-c]pyrazole-5(1H)-carbonitrile]",IC50,RBP4,15.6 nM
same,IC50,RBP4-TTR interaction,15.4 nM
"O=C(c1n[nH]c2c1CCN(CC1CC1)C2)N1CCC(c2ccc(F)c(F)c2C(F)(F)F)CC1 [Compound 118, (6-(Cyclopropylmethyl)-4,5,6,7-tetrahydro-1Hpyrazolo[3,4-c]pyridin-3-yl)(4-(3,4-difluoro-2-(trifluoromethyl)phenyl)piperidin-1-yl)methanone]",IC50,RBP4,9.39 nM
same,IC50,RBP4-TTR interaction,14.2 nM
